Activity calls are given as the source filed them. The calls are words filed in the database; no cut-off is given here.

Assay [1] has as its target T1, Protein arginine N-methyltransferase 9 (Homo sapiens) (UniProt Q6P2P2).
T1 sequence (whole entry): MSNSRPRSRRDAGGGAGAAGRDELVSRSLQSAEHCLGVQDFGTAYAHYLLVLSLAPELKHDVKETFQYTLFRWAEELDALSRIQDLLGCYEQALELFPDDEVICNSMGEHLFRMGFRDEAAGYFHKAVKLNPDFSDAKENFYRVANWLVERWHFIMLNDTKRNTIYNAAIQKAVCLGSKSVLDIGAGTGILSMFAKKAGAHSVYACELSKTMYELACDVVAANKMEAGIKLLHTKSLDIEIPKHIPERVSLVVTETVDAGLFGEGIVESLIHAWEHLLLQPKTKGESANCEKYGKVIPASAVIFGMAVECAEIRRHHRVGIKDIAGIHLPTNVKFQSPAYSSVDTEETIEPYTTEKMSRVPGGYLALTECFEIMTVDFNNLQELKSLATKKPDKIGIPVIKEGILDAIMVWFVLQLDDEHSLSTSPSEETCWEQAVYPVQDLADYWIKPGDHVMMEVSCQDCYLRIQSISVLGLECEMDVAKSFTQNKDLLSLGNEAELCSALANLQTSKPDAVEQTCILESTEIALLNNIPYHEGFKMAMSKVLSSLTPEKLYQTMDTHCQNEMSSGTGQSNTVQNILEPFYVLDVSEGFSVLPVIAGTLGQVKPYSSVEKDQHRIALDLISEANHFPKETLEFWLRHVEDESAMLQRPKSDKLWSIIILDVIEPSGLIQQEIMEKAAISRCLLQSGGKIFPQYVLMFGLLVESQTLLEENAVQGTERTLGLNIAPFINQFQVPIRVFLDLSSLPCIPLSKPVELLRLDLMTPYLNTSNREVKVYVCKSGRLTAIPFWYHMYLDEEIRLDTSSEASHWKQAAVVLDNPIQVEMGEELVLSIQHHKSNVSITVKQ
The assay is described as follows: Inhibition of human recombinant PRMT9 using biotinylated SF3B2(500 to 519 residues) as substrate and SAM as cosubstrate pre-incubated with compound for 30 mins followed by substrate addition measured after 60 mins by AlphaLISA assay. The settings on record: time 90.0 min.

Assay [2] has as its target T1, Protein arginine N-methyltransferase 9 (Homo sapiens). Briefly: Inhibition of human GST-fused PRMT9 expressed in Escherichia coli at 100 uM using human GST-SF3B2 (401 to 550 residues) peptide as substrate and human histone H2B as cosubstrate incubated under 37 degreeC in presence of 3H-SAM by SDS-PAGE based densitometric analysis.
The target is the same in assay [3]. Briefly: Inhibition of PRMT9 catalysed SF3B2 R508 methylation in human MCF7 cells upto 100 uM measured after 72 hrs by immunoblotting analysis. It is filed as cell-based. Background: Immunoblotting shows a protein as a band on a membrane.
For assay [4] the target is unchanged. The assay is described as follows: Inhibition of PRMT9 catalysed SF3B2 R508 methylation in human MDA-MB-436 cells upto 100 uM measured after 72 hrs by immunoblotting analysis. In kind it is cell-based.
For assay [5] the target is unchanged. Briefly: Inhibition of human GST-fused PRMT9 expressed in Escherichia coli at less than 5 uM using human GST-SF3B2 (401 to 550 residues) peptide as substrate and human histone H2B as cosubstrate incubated under 37 degreeC in presence of 3H-SAM by SDS-PAGE based densitometric analysis relative to control.
Assay [6] shares this target. Briefly: Inhibition of human GST-fused PRMT9 expressed in Escherichia coli at 100 uM using human GST-SF3B2 (401 to 550 residues) peptide as substrate and human histone H2B as cosubstrate incubated under 37 degreeC in presence of 3H-SAM by SDS-PAGE based densitometric analysis relative to control.
Assay [7] relates to Caenorhabditis elegans. Briefly: Inhibition of Caenorhabditis elegans GST-fused PRMT7 expressed in Escherichia coli at 100 uM using Caenorhabditis elegans GST-SFTB-2 (99 to 248 residues) peptide as substrate and human histone H2B as cosubstrate incubated under 15 degreeC in presence of 3H-SAM by SDS-PAGE based densitometric analysis.
Assay [8] addresses T1, Protein arginine N-methyltransferase 9 (Homo sapiens). Briefly: Inhibition of human GST-fused PRMT9 expressed in Escherichia coli using human GST-SF3B2 (401 to 550 residues) peptide as substrate and human histone H2B as cosubstrate under 37 degreeC in presence of 3H-SAM by SDS-PAGE based densitometric analysis. The settings on record: dose 5-100 µM.
For assay [9], the system named is Caenorhabditis elegans. Briefly: Inhibition of Caenorhabditis elegans GST-fused PRMT9 expressed in Escherichia coli at 25 to 50 uM using Caenorhabditis elegans GST-SFTB2 (99 to 248 residues) peptide as substrate and human histone H2B as cosubstrate incubated under 25 degreeC in presence of 3H-SAM by SDS-PAGE based densitometric analysis relative to control. The settings on record: dose 25-50 µM.

In assay [10] the target is T2, Protein arginine N-methyltransferase 7 (Homo sapiens) (UniProt Q9NVM4).
T2 sequence (whole entry): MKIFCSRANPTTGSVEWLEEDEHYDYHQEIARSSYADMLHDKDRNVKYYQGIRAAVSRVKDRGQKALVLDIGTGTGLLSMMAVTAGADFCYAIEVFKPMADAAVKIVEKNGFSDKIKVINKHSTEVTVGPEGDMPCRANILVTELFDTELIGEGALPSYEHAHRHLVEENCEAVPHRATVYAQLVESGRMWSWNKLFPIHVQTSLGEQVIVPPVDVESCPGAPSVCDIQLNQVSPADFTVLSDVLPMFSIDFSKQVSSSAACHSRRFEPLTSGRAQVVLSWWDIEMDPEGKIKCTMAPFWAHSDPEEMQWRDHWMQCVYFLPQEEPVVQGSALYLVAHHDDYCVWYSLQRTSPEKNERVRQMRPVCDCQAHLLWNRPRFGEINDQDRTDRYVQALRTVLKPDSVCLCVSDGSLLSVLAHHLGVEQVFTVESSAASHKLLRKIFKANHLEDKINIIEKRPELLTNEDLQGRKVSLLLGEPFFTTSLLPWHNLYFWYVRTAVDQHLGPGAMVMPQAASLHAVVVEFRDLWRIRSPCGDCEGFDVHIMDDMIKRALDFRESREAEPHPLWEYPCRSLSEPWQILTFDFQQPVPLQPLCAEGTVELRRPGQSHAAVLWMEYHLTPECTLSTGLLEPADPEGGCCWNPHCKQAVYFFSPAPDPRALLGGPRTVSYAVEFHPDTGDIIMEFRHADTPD
Briefly: Inhibition of human GST-fused PRMT7 expressed in Escherichia coli at 100 uM using human GST-SF3B2 (401 to 550 residues) peptide as substrate and human histone H2B as cosubstrate incubated under 15 degreeC in presence of 3H-SAM by SDS-PAGE based densitometric analysis.

Assay [11] deals with Caenorhabditis elegans. Briefly: Inhibition of Caenorhabditis elegans GST-fused PRMT9 expressed in Escherichia coli at 100 uM using Caenorhabditis elegans GST-SFTB2 (99 to 248 residues) peptide as substrate and human histone H2B as cosubstrate incubated under 25 degreeC in presence of 3H-SAM by SDS-PAGE based densitometric analysis relative to control.
The subject of assay [12] is Caenorhabditis elegans. Briefly: Inhibition of Caenorhabditis elegans GST-fused PRMT7 expressed in Escherichia coli at 250 uM using Caenorhabditis elegans GST-SFTB-2 (99 to 248 residues) peptide as substrate and human histone H2B as cosubstrate incubated under 15 degreeC in presence of 3H-SAM by SDS-PAGE based densitometric analysis relative to control.
Assay [13] is described as follows: Selectivity ratio of human GST-fused PRMT9 to Caenorhabditis elegans GST-fused PRMT9.

In the case of `COC(=O)c1cc(O)c2cc(NC(=O)Nc3ccc4cc(C(=O)OC)cc(O)c4c3)ccc2c1`, the inhibition entry in assay [1] is “inactive”.
The same measure, in the same setting: to `COC(=O)c1c[nH]c2ccc(NC(=O)CC(=O)Nc3ccc4[nH]cc(C(=O)OC)c4c3)cc12` belongs “inactive”.
With `CSC[C@H]1O[C@@H](n2cnc3c(N)ncnc32)[C@H](O)[C@@H]1O`, the inhibition entry in assay [2] is “Active”.
Consider `COC(=O)c1cc(O)c2cc(NC(=O)NCCCCCCCNC(=N)NC[C@H]3O[C@@H](n4cnc5c(N)ncnc54)[C@H](O)[C@@H]3O)ccc2c1`, for which the inhibition entry in [3] and in assay [4] was “inactive” in each case.
As for `COC(=O)c1cc(O)c2cc(NC(=O)NCCCCNC(=N)NC[C@H]3O[C@@H](n4cnc5c(N)ncnc54)[C@H](O)[C@@H]3O)ccc2c1`, the inhibition in assay [5] is 50%; in assay [6], 100%; in assay [8], “Dose-Dependent Effect”; in [9] it was 50%; in assay [11], 100%; in [12], 50%. Also, the inhibition entry in assay [7] was “inactive”. In addition, the inhibition entry in assay [10] was “Active”.
In the case of `O=C(Nc1ccc2[nH]cc(C(=O)O)c2c1)Nc1ccc2[nH]cc(C(=O)O)c2c1`, the inhibition result in [1] was “inactive”.
Regarding `COC(=O)c1cc(O)c2cc(NC(=O)NCCCNC(=N)NC[C@H]3O[C@@H](n4cnc5c(N)ncnc54)[C@H](O)[C@@H]3O)ccc2c1`, the inhibition in assay [5] is 50%; in assay [6] it was 100%; in assay [8] it was “Dose-Dependent Effect”; in assay [9], 50%; in [11] it was 100%; in assay [12], 50%. The inhibition entry in assay [3], in [4] and in assay [7] was “inactive” each time.
With `O=C(Nc1ccc2cc(C(=O)O)cc(O)c2c1)Nc1ccc2cc(C(=O)O)cc(O)c2c1`, the inhibition result in [1] was “inactive”.
`COC(=O)c1cc(O)c2cc(NC(=O)NCCCCNC(=N)NCC[C@H]3O[C@@H](n4cnc5c(N)ncnc54)[C@H](O)[C@@H]3O)ccc2c1`: the inhibition entry in assay [3] and in assay [4] was “inactive” in each case.
On to `COC(=O)c1cc(O)c2cc(NC(=O)NCCCCCNC(=N)NC[C@H]3O[C@@H](n4cnc5c(N)ncnc54)[C@H](O)[C@@H]3O)ccc2c1`, for which the inhibition result in assay [3], in assay [4] and in assay [7] was “inactive” in each case. Moreover, the values for the inhibition in assay [6], in assay [8] and in assay [11] were 100%, “Dose-Dependent Effect” and 100%, respectively. Besides, in [13], the Selectivity ratio was 5. Besides, the inhibition result in assay [10] was “Active”.
For `O=C(CC(=O)Nc1ccc2[nH]cc(C(=O)O)c2c1)Nc1ccc2[nH]cc(C(=O)O)c2c1`, in [1], the inhibition entry was “inactive”.
Regarding `CCOC(=O)c1cc2cc(NC(=O)CNC(=O)Nc3ccc([N+](=O)[O-])cc3)ccc2[nH]1`, the inhibition entry in [1] is “inactive”.

What is called inhibition is the drop in the measured response relative to a control, in per cent.

These data come from ChEMBL document CHEMBL5365419, “Identification of a Protein Arginine Methyltransferase 7 (PRMT7)/Protein Arginine Methyltransferase 9 (PRMT9) Inhibitor” (J Med Chem, 2023).
